{
  "source": "PubChem BioAssay (NCI)",
  "test_in_all_cases": "NCI anticancer screen, dose series, 384-well format",
  "key": {"[1]": {"test_system": "OVCAR-5 ovarian"}, "[2]": {"test_system": "MALME-3M melanoma"}, "[3]": {"test_system": "HT29 colon"}, "[4]": {"test_system": "HOP-62 NSCLC"}, "[5]": {"test_system": "ACHN renal"}, "[6]": {"test_system": "SK-OV-3 ovarian"}, "[7]": {"test_system": "NCI-H23 lung"}, "[8]": {"test_system": "HL-60(TB) leukemia"}, "[9]": {"test_system": "MDA-MB-231 breast"}, "[10]": {"test_system": "DU-145 prostate"}, "[11]": {"test_system": "SN12C renal"}, "[12]": {"test_system": "UACC-62 melanoma"}, "[13]": {"test_system": "HS 578T breast"}, "[14]": {"test_system": "NCI/ADR-RES ovarian"}, "[15]": {"test_system": "BT-549 breast"}, "[16]": {"test_system": "RPMI-8226 leukemia"}, "[17]": {"test_system": "SF-539 CNS"}, "[18]": {"test_system": "LOX IMVI melanoma"}, "[19]": {"test_system": "KM12 colon"}, "[20]": {"test_system": "MCF7 breast"}, "[21]": {"test_system": "OVCAR-8 ovarian"}, "[22]": {"test_system": "A549 NSCLC"}, "[23]": {"test_system": "CAKI-1 renal"}, "[24]": {"test_system": "SK-MEL-5 melanoma"}, "[25]": {"test_system": "HCC-2998 colon"}, "[26]": {"test_system": "UACC-257 melanoma"}, "[27]": {"test_system": "EKVX NSCLC"}, "[28]": {"test_system": "COLO 205 colon"}, "[29]": {"test_system": "SF-295 CNS"}, "[30]": {"test_system": "NCI-H522 lung"}, "[31]": {"test_system": "786-0 renal"}, "[32]": {"test_system": "NCI-H460 NSCLC"}, "[33]": {"test_system": "A498 renal"}, "[34]": {"test_system": "HOP-92 NSCLC"}, "[35]": {"test_system": "SF-268 CNS"}, "[36]": {"test_system": "SR leukemia"}, "[37]": {"test_system": "CCRF-CEM leukemia"}, "[38]": {"test_system": "K-562 leukemia"}, "[39]": {"test_system": "RXF 393 renal"}, "[40]": {"test_system": "OVCAR-4 ovarian"}, "[41]": {"test_system": "HCT-116 colon"}, "[42]": {"test_system": "SK-MEL-2 melanoma"}, "[43]": {"test_system": "OVCAR-3 ovarian"}, "[44]": {"test_system": "SK-MEL-28 melanoma"}, "[45]": {"test_system": "M14 melanoma"}, "[46]": {"test_system": "HCT-15 colon"}, "[47]": {"test_system": "SNB-19 CNS"}},
  "note": "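Here, GI50 denotes the concentration required for 50% inhibition of growth. TGI: concentration producing complete growth inhibition.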",
  "data": [
    {"smiles": "Cc1nc(NC(=O)N2CCC[C@H]2C(N)=O)sc1-c1ccnc(C(C)(C)C(F)(F)F)c1", "values": [
      {"measurement": "GI50", "setting": "[1]", "value": 5.5, "unit": "µM"},
      {"measurement": "TGI", "setting": "[1]", "value": 37.4, "unit": "µM"},
      {"measurement": "GI50", "setting": "[2]", "value": 6.66, "unit": "µM"},
      {"measurement": "TGI", "setting": "[2]", "value": 29.4, "unit": "µM"},
      {"measurement": "GI50", "setting": "[3]", "value": 1.58, "unit": "µM"},
      {"measurement": "TGI", "setting": "[3]", "value": 33.4, "unit": "µM"},
      {"measurement": "GI50", "setting": "[4]", "value": 18, "unit": "µM"},
      {"measurement": "TGI", "setting": "[4]", "value": "> 94.3", "unit": "µM"},
      {"measurement": "GI50", "setting": "[5]", "value": 9.43, "unit": "µM"},
      {"measurement": "TGI", "setting": "[5]", "value": 48.7, "unit": "µM"},
      {"measurement": "GI50", "setting": "[6]", "value": 0.725, "unit": "µM"},
      {"measurement": "TGI", "setting": "[6]", "value": 12.1, "unit": "µM"},
      {"measurement": "GI50", "setting": "[7]", "value": 12.1, "unit": "µM"},
      {"measurement": "TGI", "setting": "[7]", "value": 44.4, "unit": "µM"},
      {"measurement": "GI50", "setting": "[8]", "value": 0.727, "unit": "µM"},
      {"measurement": "TGI", "setting": "[8]", "value": 9.24, "unit": "µM"},
      {"measurement": "GI50", "setting": "[9]", "value": 13.5, "unit": "µM"},
      {"measurement": "TGI", "setting": "[9]", "value": 48.7, "unit": "µM"},
      {"measurement": "GI50", "setting": "[10]", "value": 10.8, "unit": "µM"},
      {"measurement": "TGI", "setting": "[10]", "value": 33.7, "unit": "µM"},
      {"measurement": "GI50", "setting": "[11]", "value": 14.7, "unit": "µM"},
      {"measurement": "TGI", "setting": "[11]", "value": 80.1, "unit": "µM"},
      {"measurement": "GI50", "setting": "[12]", "value": 10.2, "unit": "µM"},
      {"measurement": "TGI", "setting": "[12]", "value": 24, "unit": "µM"},
      {"measurement": "GI50", "setting": "[13]", "value": 3.7, "unit": "µM"},
      {"measurement": "TGI", "setting": "[13]", "value": 18.4, "unit": "µM"},
      {"measurement": "GI50", "setting": "[14]", "value": 16.5, "unit": "µM"},
      {"measurement": "TGI", "setting": "[14]", "value": 71.9, "unit": "µM"},
      {"measurement": "GI50", "setting": "[15]", "value": 5.81, "unit": "µM"},
      {"measurement": "TGI", "setting": "[15]", "value": 28.6, "unit": "µM"},
      {"measurement": "GI50", "setting": "[16]", "value": 7.05, "unit": "µM"},
      {"measurement": "TGI", "setting": "[16]", "value": 21.7, "unit": "µM"},
      {"measurement": "GI50", "setting": "[17]", "value": 12.5, "unit": "µM"},
      {"measurement": "TGI", "setting": "[17]", "value": 38.3, "unit": "µM"},
      {"measurement": "GI50", "setting": "[18]", "value": 7.55, "unit": "µM"},
      {"measurement": "TGI", "setting": "[18]", "value": 28, "unit": "µM"},
      {"measurement": "GI50", "setting": "[19]", "value": 25.8, "unit": "µM"},
      {"measurement": "TGI", "setting": "[19]", "value": "> 92.8", "unit": "µM"},
      {"measurement": "GI50", "setting": "[20]", "value": 0.205, "unit": "µM"},
      {"measurement": "TGI", "setting": "[20]", "value": 17.8, "unit": "µM"},
      {"measurement": "GI50", "setting": "[21]", "value": 14.3, "unit": "µM"},
      {"measurement": "TGI", "setting": "[21]", "value": 88.7, "unit": "µM"},
      {"measurement": "GI50", "setting": "[22]", "value": 6.07, "unit": "µM"},
      {"measurement": "TGI", "setting": "[22]", "value": 23.7, "unit": "µM"},
      {"measurement": "GI50", "setting": "[23]", "value": 7.1, "unit": "µM"},
      {"measurement": "TGI", "setting": "[23]", "value": 26.9, "unit": "µM"},
      {"measurement": "GI50", "setting": "[24]", "value": 6.54, "unit": "µM"},
      {"measurement": "TGI", "setting": "[24]", "value": 14.9, "unit": "µM"},
      {"measurement": "GI50", "setting": "[25]", "value": 6.67, "unit": "µM"},
      {"measurement": "TGI", "setting": "[25]", "value": 25, "unit": "µM"},
      {"measurement": "GI50", "setting": "[26]", "value": 23, "unit": "µM"},
      {"measurement": "TGI", "setting": "[26]", "value": 70.3, "unit": "µM"},
      {"measurement": "GI50", "setting": "[27]", "value": 5.55, "unit": "µM"},
      {"measurement": "TGI", "setting": "[27]", "value": 24.8, "unit": "µM"},
      {"measurement": "GI50", "setting": "[28]", "value": 7.15, "unit": "µM"},
      {"measurement": "TGI", "setting": "[28]", "value": 43.4, "unit": "µM"},
      {"measurement": "GI50", "setting": "[29]", "value": 9.16, "unit": "µM"},
      {"measurement": "TGI", "setting": "[29]", "value": 33.5, "unit": "µM"},
      {"measurement": "GI50", "setting": "[30]", "value": 4.78, "unit": "µM"},
      {"measurement": "TGI", "setting": "[30]", "value": 23.8, "unit": "µM"},
      {"measurement": "GI50", "setting": "[31]", "value": 17.4, "unit": "µM"},
      {"measurement": "TGI", "setting": "[31]", "value": 54.8, "unit": "µM"},
      {"measurement": "GI50", "setting": "[32]", "value": 2.13, "unit": "µM"},
      {"measurement": "TGI", "setting": "[32]", "value": 43, "unit": "µM"},
      {"measurement": "GI50", "setting": "[33]", "value": 8.13, "unit": "µM"},
      {"measurement": "TGI", "setting": "[33]", "value": 37.7, "unit": "µM"},
      {"measurement": "GI50", "setting": "[34]", "value": 3.09, "unit": "µM"},
      {"measurement": "TGI", "setting": "[34]", "value": 20.6, "unit": "µM"},
      {"measurement": "GI50", "setting": "[35]", "value": 12.9, "unit": "µM"},
      {"measurement": "TGI", "setting": "[35]", "value": 61.2, "unit": "µM"},
      {"measurement": "GI50", "setting": "[36]", "value": 3.57, "unit": "µM"},
      {"measurement": "TGI", "setting": "[36]", "value": 15.6, "unit": "µM"},
      {"measurement": "GI50", "setting": "[37]", "value": 3.51, "unit": "µM"},
      {"measurement": "TGI", "setting": "[37]", "value": 15.6, "unit": "µM"},
      {"measurement": "GI50", "setting": "[38]", "value": 15.6, "unit": "µM"},
      {"measurement": "TGI", "setting": "[38]", "value": 35.1, "unit": "µM"},
      {"measurement": "GI50", "setting": "[39]", "value": 5.57, "unit": "µM"},
      {"measurement": "TGI", "setting": "[39]", "value": 22.5, "unit": "µM"},
      {"measurement": "GI50", "setting": "[40]", "value": 7.73, "unit": "µM"},
      {"measurement": "TGI", "setting": "[40]", "value": 40.7, "unit": "µM"},
      {"measurement": "GI50", "setting": "[41]", "value": 7.62, "unit": "µM"},
      {"measurement": "TGI", "setting": "[41]", "value": 42.8, "unit": "µM"},
      {"measurement": "GI50", "setting": "[42]", "value": 12.4, "unit": "µM"},
      {"measurement": "TGI", "setting": "[42]", "value": 26.2, "unit": "µM"},
      {"measurement": "GI50", "setting": "[43]", "value": 6.07, "unit": "µM"},
      {"measurement": "TGI", "setting": "[43]", "value": 27.8, "unit": "µM"},
      {"measurement": "GI50", "setting": "[44]", "value": 7.87, "unit": "µM"},
      {"measurement": "TGI", "setting": "[44]", "value": "> 83", "unit": "µM"},
      {"measurement": "GI50", "setting": "[45]", "value": 15, "unit": "µM"},
      {"measurement": "TGI", "setting": "[45]", "value": "> 74.2", "unit": "µM"},
      {"measurement": "GI50", "setting": "[46]", "value": 2.74, "unit": "µM"},
      {"measurement": "TGI", "setting": "[46]", "value": 27.8, "unit": "µM"},
      {"measurement": "GI50", "setting": "[47]", "value": 28.6, "unit": "µM"},
      {"measurement": "TGI", "setting": "[47]", "value": "> 100", "unit": "µM"}
    ]}
  ]
}
